Results from patent US12559559B2, “Targeting Galectin-9 as a therapeutic strategy for T-cell exhaustion in T-cell acute lymphoblastic leukemia” (DANA-FARBER CANCER INSTITUTE, INC., priority 2019, dated 2026).
pIC50: −log10 of the molar value. Read-outs that look alike come from different tables or passages of the source.

Assays:
DND-41 T-ALL cell line = test: Cell proliferation assay (CellTiter-Glo cell viability), DND-41; type: cell-based; conditions: DND41, 168 h, 7 days, read-out: IC50, cell viability normalized to DMSO
Procedure: (§1) FIG. 16A-16E is a series of graphs showing inhibition of T-ALL proliferation by PI3K inhibitor is increased when combined with GSI. DND-41, HPB-ALL, KOPT-K1, Jurkat and Loucy T-ALL cell lines were treated with Buparlisib, GSI, Buparlisib with 1 μM of GSI or DMSO for 7 days. Dose response curves of cell viability normalized to DMSO are shown (datapoints are derived from 3 replicates each, error bars show standard deviation).
(§2) The leukemia cell lines (all verified by STR profiling) DND-41, KOPT-K1, HPB-ALL, Loucy, MOLT-4, NALM-6, SEM, KG-1 and HL-60 were obtained from ATCC or DSMZ, and were cultured in RPMI 1640 with 10% of heat-inactivated fetal bovine serum, 1% penicillin/streptomycin (Invitrogen).
(§3) Buparlisib (Selleckchem) and GSI (Santa Cruz Biotechnology, Inc) were prepared in DMSO (Sigma-Aldrich). Cell proliferation assays were measured by CellTiter-Glo Luminescent Cell viability assay (Promega), after a period of seven days. IC50 values were calculated by fitting the dose-response curves to a three-parameter sigmoid dose-response model using GraphPad. Error bars reflect standard deviation.

HPB-ALL T-ALL cell line = test: Cell proliferation assay (CellTiter-Glo cell viability), HPB-ALL; type: cell-based; conditions: Homo sapiens, HPBALL, 168 h, 7 days, read-out: IC50, cell viability normalized to DMSO
Procedure: as §1, §2, §3

KOPT-K1 T-ALL cell line = test: Cell proliferation assay (CellTiter-Glo cell viability), KOPT-K1; type: cell-based; conditions: Homo sapiens, KOPTK1, 168 h, 7 days, read-out: IC50, cell viability normalized to DMSO
Procedure: as §1, §2, §3

Jurkat T-ALL cell line = test: Cell proliferation assay (CellTiter-Glo cell viability), Jurkat; type: cell-based; conditions: Homo sapiens, 168 h, 7 days, read-out: IC50, cell viability normalized to DMSO
Procedure: as §1, §3

Loucy T-ALL cell line = test: Cell proliferation assay (CellTiter-Glo cell viability), Loucy; type: cell-based; conditions: 168 h, 7 days, read-out: IC50, cell viability normalized to DMSO
Procedure: as §1, §2, §3

Notch = test: Single-cell RNA-seq of leukemic cells of ETP T-ALL patients before and after GSI treatment; type: in vivo, human; conditions: scRNA-seq
From the text: Banked blood or bone marrow samples from patients with relapsed/refractory ETP T-ALL (see Table 1) were used in this study. All patients provided informed consent and were enrolled on a phase I clinical trial (NCT01363817) with the γ-secretase inhibitor (GSI) BMS-906024, a Notch inhibitor. Ayala Pharmaceuticals is investigating AL101 (BMS-906024) in a Phase II open-label, single-arm, multicenter study in ACC patients harboring known NOTCH1-4 activating mutations (ACCURACY; NCT03691207). Normal donor blood was obtained from Research Blood Components, LLC; and mononuclear cells (PBMCs) were isolated using Ficoll-Paque PLUS from GE Healthcare.
Full-length single-cell RNA-seq libraries were prepared using the SMART-seq2 protocol (Picelli et al., 2014 Nat Protoc, 9(1):171-181). cDNA was fragmented using Nextera XT (Illumina) and amplified with indexed Nextera PCR primers. Products were quantified using a Bioanalyzer High Sensitivity DNA Kit. Pooled libraries were sequenced on a NextSeq 500 (Illumina) with an average sequencing depth of 0.5-1 million reads per cell.
Processing and quality filtering of scRNA-seq data was carried out using trimmomatic^21, STAR (Dobin et al., 2013 Bioinformatics, 29(1):15-21), HTSeq (Anders et al., 2015 Bioinformatics, 31(2):166-169) and RSEM (Li et al., 2011 BMC Bioinformatics, 12:323). Clustering of single-cell profiles and marker gene analyses were performed using PAGODA2 (Fan et al., 2016 Nature methods, 13(3):241-244), monocole2 (Trapnell et al., 2014 Nat Biotechnol, 32(4):381-386), SEURAT (Butler et al., 2018 Nature Biotechnology, 36(5):411-420) and RNA velocity (La et al., 2018 Nature, 560(7719):494-498). Single nucleotide variant and copy number analyses were performed with mutect2 (Cibulskis et al., 2013 Nat Biotechnol, 31(3):213-219), InferCNV (Patel et al., 2014 Science, 344(6190):1396-1401; Tirosh et al., 2016 Science, 352(6282):189-196) and CONICSmat (Muller et al., 2018 Bioinformatics, 34(18):3217-3219). Single-cell profiles were compared with cell types from ImmGen (Heng et al., 2008 Nat Immunol, 9[…] a log-likelihood model. Transcriptional regulon and signaling pathway activities were analyzed with SCENIC (Fernandez et al., 2016 Cell Syst, 3(5):491-495 e495) and PROGENy (Schubert et al., 2018 Nat Commun, 9(1):20). Further details of the analysis are set forth below.
In order to fully define ETP T-ALL heterogeneity on the single-cell level, a full-length transcriptome analysis of 5,077 malignant and normal immune cells (T-cells, B-cells and monocytes) was performed from bone marrow or blood from four healthy donors and five patients with relapsed/refractory ETP T-ALL, diagnosed by immunophenotyping for ETP T-ALL, all with NOTCH1 gain-of-function mutations. These patients were treated with the γ-secretase inhibitor (GSI), and pre- and post-treatment samples were processed for this study.
The effects of Notch inhibition were next explored. […] It was hypothesized that persistence of a stem-like population might be the reason for the limited effects of Notch inhibitors in patients with relapsed/refractory Notch-mutant T-ALL.

[1] = ETP T-ALL patients treated with GSI

Structure (SMILES)	pIC50 (DND-41 T-ALL cell line; DND-41, Buparlisib alone)	pIC50 (DND-41 T-ALL cell line; DND-41, Buparlisib with 1 μM of GSI)	pIC50 (HPB-ALL T-ALL cell line; Buparlisib alone)	pIC50 (HPB-ALL T-ALL cell line; Buparlisib with 1 μM of GSI)	pIC50 (KOPT-K1 T-ALL cell line; KOPT-K1, Buparlisib alone)	pIC50 (KOPT-K1 T-ALL cell line; KOPT-K1, Buparlisib with 1 μM of GSI)	pIC50 (Jurkat T-ALL cell line; Buparlisib alone)	pIC50 (Jurkat T-ALL cell line; Buparlisib with 1 μM of GSI)	pIC50 (Loucy T-ALL cell line; Buparlisib alone)	pIC50 (Loucy T-ALL cell line; Buparlisib with 1 μM of GSI)	Cell cycle of leukemic cells upon treatment (Notch; [1])	Notch target gene expression upon treatment (Notch; [1])	Cycling stem-like root cells (root2) after treatment (Notch; ETP T-ALL patients)	Non-cycling root cells (root1) after treatment (Notch; ETP T-ALL patients)	Cells with high PI3K signaling activity compared to untreated cells (Notch; ETP T-ALL patients, PROGENy)
Nc1cc(C(F)(F)F)c(-c2cc(N3CCOCC3)nc(N3CCOCC3)n2)cn1 [Buparlisib]	6.00	6.88	6.47	11.14	5.94	6.60	6.14	6.37	6.19	6.15	–	–	–	–	–
CN1C(=O)[C@@H](NC(=O)[C@H](CCC(F)(F)F)[C@H](CCC(F)(F)F)C(N)=O)N=C(c2ccccc2)c2ccccc21 [GSI, BMS-906024]	–	–	–	–	–	–	–	–	–	–	Cell cycle arrest	downregulation of Notch target genes	abolishes the cycling stem-like root cells (root2)	persist in the face of treatment	enrichment of cells with high PI3K signaling activity
